Measured values as given in patent publication US8952024B2, “Herbicidal pyrimidone derivatives” (E I du Pont de Nemours and Company, priority 2009, dated 2015).

Legend:
Test in all cases: Test B pre-/postemergence plant response
Type in all cases: in vivo
[1] = tested on: pigweed (Amaranthus retroflexus)
How it was run: (§1)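 Seeds sown in loam–sand blend were treated preemergence, and plants at 2–18 cm (1- to 4-leaf stage) in peat-based medium were treated postemergence; compounds were formulated in non-phytotoxic solvent with surfactant. After 13–15 days in greenhouse, response was visually rated against controls, 0 (no effect) to 100 (complete control).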

[2] = tested on: corn (Zea mays)
How it was run: as §1

[3] = tested on: downy bromegrass (Bromus tectorum)
How it was run: as §1

[4] = tested on: kochia (Kochia scoparia)
How it was run: as §1

[5] = tested on: johnsongrass (Sorghum halepense)
How it was run: as §1

[6] = tested on: velvetleaf (Abutilon theophrasti)
How it was run: as §1

[7] = tested on: blackgrass (Alopecurus myosuroides)
How it was run: as §1

[8] = tested on: soybean (Glycine max)
How it was run: as §1

[9] = tested on: ragweed (common ragweed, Ambrosia elatior)
How it was run: as §1

[10] = tested on: woolly cupgrass (Eriochloa villosa)
How it was run: as §1

[11] = tested on: Surinam grass (Brachiaria decumbens)
How it was run: as §1

[12] = tested on: giant foxtail (Setaria faberii)
How it was run: as §1

[13] = tested on: Italian ryegrass (Lolium multiflorum)
How it was run: as §1

[14] = Postemergence, 31 g ai/ha, 0 to 100 scale (0 no effect, 100 complete control)
[15] = Postemergence, 62 g ai/ha, scale 0 to 100 (0 no effect, 100 complete control)
[16] = Postemergence, 125 g ai/ha, scale 0 (no effect) to 100 (complete control), 13 to 15 days
[17] = Postemergence, 250 g ai/ha, scale 0 to 100 (0 no effect, 100 complete control), 13 to 15 days
[18] = 31 g ai/ha, postemergence, scale 0 to 100, 0 is no effect, 100 is complete control
[19] = 62 g ai/ha, postemergence, 0 is no effect, 100 is complete control, 13 to 15 days
[20] = Postemergence, 125 g ai/ha, visual rating after 13 to 15 days, scale 0 (no effect) to 100 (complete control)
[21] = Postemergence, 250 g ai/ha, scale 0 to 100 (0 no effect, 100 complete control)
[22] = Preemergence, 31 g ai/ha, scale 0 to 100 (0 no effect, 100 complete control)
[23] = Preemergence, 62 g ai/ha, scale 0 to 100 (0 no effect, 100 complete control)
[24] = Preemergence, 125 g ai/ha, scale 0 to 100, 0 no effect, 100 complete control
[25] = 250 g ai/ha, Preemergence, 0 to 100 scale

CCCCn1c(-c2cccc(F)c2)ncc(C(=O)C2=C(O)C3CCC(C3)C2=O)c1=O (centres unmarked) [Compound 237]
95: Plant response rating, Bromegrass, Downy [3, 17] | Plant response rating, Soybean [8, 14] | Plant response rating, Ragweed [9, 14]
98: Plant response rating, Pigweed [1, 15] | Plant response rating, Corn [2, 15] | Plant response rating, Ragweed [9, 15] | Plant response rating, Surinam Grass [11, 15] | Plant response rating, Foxtail, Giant [12, 14] | Plant response rating, Foxtail, Giant [12, 15] | Plant response rating, Foxtail, Giant [12, 16]
80: Plant response rating, Pigweed [1, 14] | Plant response rating, Kochia [4, 15] | Plant response rating, Blackgrass [7, 17]
85: Plant response rating, Corn [2, 14] | Plant response rating, Velvetleaf [6, 14] | Plant response rating, Surinam Grass [11, 14]
60: Plant response rating, Ryegrass, Italian [13, 16] | Plant response rating, Ryegrass, Italian [13, 17]
50: Plant response rating, Blackgrass [7, 14] | Plant response rating, Ryegrass, Italian [13, 14] | Plant response rating, Ryegrass, Italian [13, 15]
45: Plant response rating, Bromegrass, Downy [3, 15]
65: Plant response rating, Kochia [4, 14]
70: Plant response rating, Blackgrass [7, 15] | Plant response rating, Blackgrass [7, 16]
30: Plant response rating, Bromegrass, Downy [3, 14]
100: Plant response rating, Pigweed [1, 16] | Plant response rating, Pigweed [1, 17] | Plant response rating, Corn [2, 16] | Plant response rating, Corn [2, 17] | Plant response rating, Kochia [4, 16] | Plant response rating, Kochia [4, 17] | Plant response rating, Johnsongrass [5, 14] | Plant response rating, Johnsongrass [5, 15] | Plant response rating, Johnsongrass [5, 16] | Plant response rating, Johnsongrass [5, 17] | Plant response rating, Velvetleaf [6, 16] | Plant response rating, Velvetleaf [6, 17] | Plant response rating, Soybean [8, 15] | Plant response rating, Soybean [8, 16] | Plant response rating, Soybean [8, 17] | Plant response rating, Ragweed [9, 16] | Plant response rating, Ragweed [9, 17] | Plant response rating, Cupgrass, Woolly [10, 14] | Plant response rating, Cupgrass, Woolly [10, 15] | Plant response rating, Cupgrass, Woolly [10, 16] | Plant response rating, Cupgrass, Woolly [10, 17] | Plant response rating, Surinam Grass [11, 16] | Plant response rating, Surinam Grass [11, 17] | Plant response rating, Foxtail, Giant [12, 17]
90: Plant response rating, Bromegrass, Downy [3, 16] | Plant response rating, Velvetleaf [6, 15]

CCCc1ncc(C(=O)C2=C(O)CCCC2=O)c(=O)n1-c1ccccc1C [Compound 73]
100: Plant response rating, Pigweed [1, 20] | Plant response rating, Pigweed [1, 21] | Plant response rating, Pigweed [1, 23] | Plant response rating, Pigweed [1, 24] | Velvetleaf plant response rating (0 to 100 scale) [6, 19] | Plant response rating, Velvetleaf [6, 20] | Plant response rating, Velvetleaf [6, 21] | Plant response rating, Velvetleaf [6, 22] | Plant response rating, Velvetleaf [6, 23] | Plant response rating, Velvetleaf [6, 24] | Plant response rating, Surinam Grass [11, 23] | Plant response rating, Surinam Grass [11, 24]
30: Plant response rating, Blackgrass [7, 21]
95: Plant response rating, Pigweed [1, 22] | Plant response rating, Velvetleaf [6, 18] | Plant response rating, Soybean [8, 21]
20: Plant response rating, Corn [2, 18] | Plant response rating, Bromegrass, Downy [3, 18] | Plant response rating, Bromegrass, Downy [3, 25] | Plant response rating, Cupgrass, Woolly [10, 23]
65: Johnsongrass plant response rating (0 to 100 scale) [5, 19] | Cupgrass, Woolly plant response rating (0 to 100 scale) [10, 19] | Plant response rating, Cupgrass, Woolly [10, 20] | Plant response rating, Cupgrass, Woolly [10, 21]
45: Bromegrass, Downy plant response rating (0 to 100 scale) [3, 19] | Plant response rating, Ragweed [9, 22] | Ryegrass, Italian plant response rating (0 to 100 scale) [13, 19]
85: Plant response rating, Corn [2, 21] | Soybean plant response rating (0 to 100 scale) [8, 19] | Plant response rating, Ragweed [9, 20] | Plant response rating, Ragweed [9, 21] | Surinam Grass plant response rating (0 to 100 scale) [11, 19] | Plant response rating, Surinam Grass [11, 20] | Plant response rating, Surinam Grass [11, 21] | Plant response rating, Surinam Grass [11, 22]
5: Plant response rating, Bromegrass, Downy [3, 23] | Plant response rating, Bromegrass, Downy [3, 24]
70: Plant response rating, Johnsongrass [5, 20] | Plant response rating, Foxtail, Giant [12, 18] | Plant response rating, Foxtail, Giant [12, 23] | Plant response rating, Ryegrass, Italian [13, 21]
80: Plant response rating, Pigweed [1, 18] | Corn plant response rating (0 to 100 scale) [2, 19] | Plant response rating, Corn [2, 20] | Kochia plant response rating (0 to 100 scale) [4, 19] | Plant response rating, Kochia [4, 24] | Plant response rating, Soybean [8, 18] | Ragweed plant response rating (0 to 100 scale) [9, 19] | Plant response rating, Cupgrass, Woolly [10, 25] | Plant response rating, Surinam Grass [11, 18] | Plant response rating, Foxtail, Giant [12, 25] | Plant response rating, Foxtail, Giant [12, 20]
50: Plant response rating, Bromegrass, Downy [3, 20]
0: Plant response rating, Corn [2, 22] | Plant response rating, Corn [2, 23] | Plant response rating, Corn [2, 24] | Plant response rating, Bromegrass, Downy [3, 22] | Plant response rating, Kochia [4, 22] | Plant response rating, Johnsongrass [5, 22] | Plant response rating, Johnsongrass [5, 23] | Plant response rating, Blackgrass [7, 18] | Plant response rating, Blackgrass [7, 22] | Plant response rating, Blackgrass [7, 23] | Plant response rating, Blackgrass [7, 24] | Plant response rating, Foxtail, Giant [12, 22] | Plant response rating, Ryegrass, Italian [13, 22] | Plant response rating, Ryegrass, Italian [13, 23] | Plant response rating, Ryegrass, Italian [13, 24]
90: Plant response rating, Kochia [4, 25] | Plant response rating, Kochia [4, 20] | Plant response rating, Kochia [4, 21] | Plant response rating, Soybean [8, 20] | Plant response rating, Foxtail, Giant [12, 21]
98: Pigweed plant response rating (0 to 100 scale) [1, 19] | Plant response rating, Johnsongrass [5, 25] | Plant response rating, Johnsongrass [5, 24]
10: Plant response rating, Corn [2, 25] | Plant response rating, Johnsongrass [5, 18] | Blackgrass plant response rating (0 to 100 scale) [7, 19] | Plant response rating, Blackgrass [7, 25] | Plant response rating, Blackgrass [7, 20] | Plant response rating, Cupgrass, Woolly [10, 22]
75: Plant response rating, Kochia [4, 18] | Plant response rating, Johnsongrass [5, 21] | Plant response rating, Ragweed [9, 18] | Plant response rating, Ragweed [9, 24] | Foxtail, Giant plant response rating (0 to 100 scale) [12, 19] | Plant response rating, Foxtail, Giant [12, 24]
35: Plant response rating, Ryegrass, Italian [13, 18]
60: Plant response rating, Bromegrass, Downy [3, 21] | Plant response rating, Ragweed [9, 23] | Plant response rating, Cupgrass, Woolly [10, 18] | Plant response rating, Ryegrass, Italian [13, 20]
55: Plant response rating, Cupgrass, Woolly [10, 24]
